# Reference: ChEMBL document CHEMBL1132020, “Highly potent inhibitors of the Grb2-SH2 domain” (Bioorg Med Chem Lett, 1999)
# pIC50: −log10 of the molar value.
# Biological target: Growth factor receptor-bound protein 2 (Homo sapiens, UniProt P62993)
# Experiment: Inhibition of Grb-SH2 domain binding to phosphorylated carboxy-terminal intracellular domain of epidermal growth factor receptor
# Format: cell-based
row,pIC50,SMILES
1,7.23,CC(=O)N[C@@H](Cc1ccc(CP(=O)(O)O)cc1)C(=O)NC1(C(=O)N[C@@H](CC(N)=O)C(=O)NCCCn2ccc3cc(Cl)ccc32)CCCCC1
2,8.92,CC(=O)N[C@@H](Cc1ccc(CP(=O)(O)O)cc1)C(=O)NC1(C(=O)N[C@@H](CC(N)=O)C(=O)NCCCn2ccc3ccccc32)CCCCC1
3,7.85,COc1ccc2c(CCCNC(=O)[C@H](CC(N)=O)NC(=O)C3(NC(=O)[C@H](Cc4ccc(CP(=O)(O)O)cc4)NC(C)=O)CCCCC3)c[nH]c2c1
4,6.81,CC(=O)N[C@@H](Cc1ccc(CP(=O)(O)O)cc1)C(=O)NC1(C(=O)N[C@@H](CC(N)=O)C(=O)NCCCc2c[nH]c3ccccc23)CCCCC1
5,9.40,CC(=O)N[C@@H](Cc1ccc(CP(=O)(O)O)cc1)C(=O)NC1(C(=O)N[C@@H](CC(N)=O)C(=O)NCCCn2ccc3cc(C)ccc32)CCCCC1
6,7.09,CC(=O)N[C@@H](Cc1ccc(CP(=O)(O)O)cc1)C(=O)NC1(C(=O)N[C@@H](CC(N)=O)C(=O)NCCCn2cc(C)c3ccccc32)CCCCC1
7,7.83,CC(=O)N[C@@H](Cc1ccc(CP(=O)(O)O)cc1)C(=O)NC1(C(=O)N[C@@H](CC(N)=O)C(=O)NCCCn2c(C)cc3ccccc32)CCCCC1
8,8.47,CC(=O)N[C@@H](Cc1ccc(CP(=O)(O)O)cc1)C(=O)NC1(C(=O)N[C@@H](CC(N)=O)C(=O)NCCCn2ccc3cc(N(C)C)ccc32)CCCCC1
9,9.05,COc1ccc2c(ccn2CCCNC(=O)[C@H](CC(N)=O)NC(=O)C2(NC(=O)[C@H](Cc3ccc(CP(=O)(O)O)cc3)NC(C)=O)CCCCC2)c1
10,8.04,CC(=O)N[C@@H](Cc1ccc(CP(=O)(O)O)cc1)C(=O)NC1(C(=O)N[C@@H](CC(N)=O)C(=O)NCCCc2cn(C)c3ccccc23)CCCCC1

row,SMILES,pIC50
1,CC(=O)N[C@@H](Cc1ccc(CP(=O)(O)O)cc1)C(=O)NC1(C(=O)N[C@@H](CC(N)=O)C(=O)NCCCn2ccc3cc(O)ccc32)CCCCC1,9.52
